Entries after “also recorded” stand apart in the source; their conditions may differ.
Tests used:
[1] = test system: TGFβ-induced luciferase activity; assay: Spectrum collection small molecule screen with TGFβ-dependent SBE-luciferase HEK293FT reporter cell line; type: cell-based, human; conditions: HEK293FT-luc reporter line
Source text: The minimal thymidine kinase promoter was amplified by PCR with the following forward and reverse primers, of which the forward primer contained four tandem Smad binding elements (SBE):
Restriction sites in the primers are underlined. The resultant PCR product was TOPO cloned (Invitrogen) and the correct insert was verified by DNA sequencing. The construct was digested with SacI-HindIII and the SBEx4-TK insert was purified and ligated with the pGL4.15 vector (Promega). Clones were verified by restriction digest and then tested for TGFβ responsiveness in transient transfections of 293FT cells. […] Clones were selected by treatment with 200 μg/ml hygromycin. 20 clones were selected and screened for TGFβ-induced luciferase activity. One clone that was robustly responsive was subsequently used in the small molecule screen.
Excessive scarring results from the formation of too many myofibroblasts and the production of too much extracellular matrix material such as collagen. Since TGFβ drives the formation of myofibroblasts in part through activating the Smad pathway, a reporter construct was designed to serve as a measure of TGFβ-induced Smad activity (FIG. 1A). Four tandem Smad binding elements (SBE) were inserted upstream of the minimal thymidine kinase promoter. The SBEx4-TK promoter was inserted into the pGL4.15 vector which contains a destabilized firefly luciferase gene and the hygromycin resistance gene. The pSBEx4-TK-luc-Hygro plasmid was then introduced into HEK293FT cells by lipofection. Stable clones were generated and screened for TGFβ induced luciferase activity. One clone was selected that consistently gave a 15 to 20-fold induction of luciferase activity when cells were treated with TGFβ for 24 hours (FIG. 1B).
To find compounds that inhibit TGFβ activity and thus may be novel anti-scarring compounds, the Spectrum collection of 2,300 small molecules was screened with the cell line. […] Salinomycin, an antibiotic produced from Streptomyces albus is used as coccidiostat agent in animal feed (Knirschova et al., “Multiple regulatory genes in the salinomycin biosynthetic gene cluster of Streptomyces albus CCM 4719,” Folia Microbiologica 52:359-365 (2007), which is hereby incorporated by reference in its entirety). […] Thus, further investigation was made to assess the use of salinomycin as an anti-scarring agent.

[2] = test system: TGFβ-induced myofibroblast formation in human fibroblasts; assay: Western blot of myofibroblast markers αSMA and calponin in TGFβ-treated human (TED orbital) fibroblasts; type: cell-based; conditions: for expression of αSMA and calponin: TGFβ; for expression of αSMA and calponin, dose dependence: 10-250 nM
Description: (§1) TED fibroblasts were treated with TGFβ (1 ng/ml) in the presence or absence of 10-250 nM salinomycin for 72 hours to allow formation of myofibroblasts. After 72 hours, cells were harvested and analyzed by Western blot. As expected, the fibroblasts robustly responded to TGFβ, expressing high levels of αSMA and calponin (FIG. 2A). […] At 50 nM salinomycin, expression of αSMA was reduced by 4-fold over TGFβ treatment alone. Furthermore, at 250 nM salinomycin, αSMA expression was reduced by approximately 16-fold, to levels at or below untreated fibroblasts. […] Another key role of myofibroblasts in scar formation is the production of collagen. Whether salinomycin could block myofibroblast collagen production was assessed. Cells were treated with TGFβ and salinomycin as above and after 72 hours, culture medium was collected and analyzed for collagen levels using a specific collagen I antibody and slot blot analysis.
To test these four compounds, human fibroblasts were treated with TGFβ in the absence or presence of 250 nM of either salinomycin, narasin, clioquinol or monensin for 72 hours. After treatment, cell lysates were harvested and analyzed for the presence of the myofibroblast markers, αSMA and calponin (FIG. 3B).

[3] = test system: collagen production of TGFβ induced myofibroblasts; assay: Collagen production assay (collagen I slot blot of culture supernatant); type: cell-based, human; conditions: 72 hours
Description: Cell culture supernatant was collected and transferred (5-20 ul) to PVDF membrane using a slot blot device. The membrane was blocked and probed with a goat anti-collagen antibody (1:5000), washed and incubated with a donkey anti-goat antibody conjugated to HRP. Band intensities were quantified using ImageLab software and values were normalized to vehicle treatments.
as §1

[4] = test system: TGFβ-dependent myofibroblast formation in primary human fibroblasts; assay: Myofibroblast formation assay in primary human fibroblasts (morphology, Western blot) for Spectrum hits; type: cell-based
Description: Using the lowest effective dose from the secondary screening assay, PPT (5 μM), ASC (1 μM), BTS (1 μM), and AXD (1 μM) were compared to 0.1 μM SNC using primary human fibroblasts (FIG. 13). The myofibroblast formation assay consists of the following protocol: fibroblasts are treated with the aforementioned small molecules and treated with TGFβ (1 ng/ml) for 72 hours. The cells were then either photographed for morphological analysis or collected, lysed and analyzed by Western blot for the myofibroblast markers alpha-smooth muscle actin (αSMA) and calponin. β-tubulin was used as a loading control.
PPT was used at 1 and 5 μM (lanes 3 and 4), BTS was used at 0.1 and 1 μM (lanes 5 and 6), ASC was used at 0.1 and 1 μM (lanes 7 and 8), SNC was used at 100 nM and 1 μM (lanes 9 and 10), and AXD was used at 0.1 and 1 μM (lanes 11 and 12).

[5] = test system: TGFβ-induced myofibroblast formation in human fibroblasts; assay: Western blot of myofibroblast markers αSMA and calponin in TGFβ-treated human (TED orbital) fibroblasts; type: cell-based; conditions: 250 nM, 72 hours
p38 = conditions: human ovarian cancer, 2-7 uM; cited from earlier work

CC[C@@H](C(=O)[C@@H](C)[C@@H](O)[C@H](C)[C@@H]1O[C@@H]([C@@H](CC)C(=O)O)CC[C@@H]1C)[C@H]1O[C@]2(C=C[C@@H](O)[C@]3(CC[C@@](C)([C@H]4CC[C@](O)(CC)[C@H](C)O4)O3)O2)[C@H](C)C[C@@H]1C [salinomycin]
inhibition of TGFβ-induced luciferase activity, initial screen [1]: blocked TGFβ-induced luciferase activity; also recorded: particularly potent at inhibiting luciferase activity
reduction of αSMA expression over TGFβ treatment alone ([2]; 50 nM, TGFβ 1 ng/ml, 72 hours): 4 fold
reduction of αSMA expression over TGFβ treatment alone ([2]; 250 nM, TGFβ 1 ng/ml, 72 hours): approximately 16 fold
expression of αSMA and calponin ([2]; 250 nM, 72 hours): lower than vehicle levels
expression of αSMA and calponin ([2]; 250 nM, 72 hours, listed as Salinomycin): inhibited expression of αSMA and calponin
TGFβ-dependent expression of alpha smooth muscle actin, calponin and collagen ([2]; 250 nM, primary human fibroblasts): blocked
expression of αSMA and calponin, dose dependence ([2]; TGFβ 1 ng/ml, 72 hours): dose dependent manner
expression of αSMA and calponin, dose dependence ([2]; TGFβ 1 ng/ml, 72 hours, listed as Salinomycin): dose-dependent decrease
expression of myofibroblast markers αSMA and calponin ([2]; 100 and 200 nM, TGFβ 1 ng/ml, 72 hours, densitometry): below baseline levels
collagen production ([3]; 10 nM): decreases
collagen production ([3]; 100 nM): at baseline levels
collagen production ([3]; 250 nM): below baseline levels
collagen I levels, dose dependence ([3]; 10-250 nM): dose-dependent manner
α-SMA and calponin expression in human fibroblasts ([4]; FIG. 14 lanes: PPT 1, 5 uM, BTS, ASC, AXD 0.1, 1 uM, SNC 100 nM, 1 uM): inhibit β-dependent α-SMA and calponin expression
expression of Thy1 ([4]; both doses, 100 nM and 1 μM): inhibits expression of Thy1
TGFβ-dependent αSMA and calponin (marker) expression ([4]; lower dose, 100 nM): effective even at the lower dose
myofibroblast formation / phenotype ([4]; lowest effective dose from secondary screen: PPT 5 μM, ASC, BTS, AXD 1 μM, SNC 0.1 μM, TGFβ 1 ng/ml, 72 hours): inhibit myofibroblast phenotype
TGFβ induced expression of αSMA and calponin ([5]; MKK6(glu) expressing cells): attenuated the ability of salinomycin to block
TGFβ induced expression of αSMA and calponin ([5]; control GFP expressing cells): blocked their induction
p38 activity (p38): activated

Source: patent publication US10548911B2, “Small molecule anti-scarring agents” (UNIVERSITY OF ROCHESTER, priority 2014, dated 2020)
